Here are results for 11 compounds from US8222430B2, “1-heterodiene derivative and harmful organism control agent” (priority 2008, dated 2012).

Read-outs that look alike come from different tables or passages of the source.

Series [1] relates to Tetranychus urticae with organophosphate resistance. The experiment in a line: Confirmation of efficacy against Tetranychus urticae (bean seedlings, mortality). The note with it: for mortality rate: 125 ppm, sprayed bean seedlings, female adults with organophosphate resistance, after three days, 25° C., humidity 65%.
Another series relates to Bemisia tabaci. The experiment in a line: Confirmation of efficacy against Bemisia tabaci (sprayed detached tomato leaves, insect mortality). Format: in vivo. The note with it: 72 h, B type adults, after three days, 25° C., humidity 65%, read-out: mortality rate. The text has this:
Detached tomato leaves were sprayed with the resulting chemical solution and air-dried. Then, the leaves were set on flasks in a manner that the surface of the leaves face upward. […] The test was repeated twice.

The next series has as its system Aphis gossypii. The experiment in a line: Confirmation of efficacy against Aphis gossypii (cucumber seedlings, insect mortality). The format is in vivo. The conditions noted are these: 120 h, read-out: mortality rate. The text has this:
Mortality was investigated after five days, and the insect mortality rate was obtained.
The test was repeated twice.

The subject of the next series is Pseudaletia separate. Put plainly: Confirmation of efficacy against Pseudaletia separate (maize leaf soak, insect mortality). The format is in vivo. The conditions noted are these: 120 h, maize leaves soaked 30 seconds, second-instar larvae, after five days, 25° C., humidity 65%, read-out: mortality rate. The text has this: Maize leaves were soaked in the resulting chemical solution for 30 seconds and air-dried. Then the leaves were put on Petri dishes lined with a filter paper, followed by inoculating 5 second-instar larvae. […] Mortality was investigated after five days, and the insect mortality rate was obtained. The test was repeated twice.

[2] abbreviates: 125 ppm, cucumber seedlings parasitized with offspring, after five days, 25° C., humidity 65%.

Consider `Cc1ccc(/N=C2\OC(c3ccccc3)CC\C2=C/Sc2ccccc2)cc1` (centres unmarked) [Compound 2a-86], for which, in series [1], the mortality rate turned out to be 100%.

For `Cc1ccc(/N=C2\OC3CCCCC3C\C2=C/Sc2ccccc2)cc1` (centres unmarked) [Compound 5a-1], the mortality at 125 ppm with Bemisia tabaci, in the series on Aphis gossypii (setting [2]) and in the series on Pseudaletia separate was 100% each time.

`Cc1ccc(/N=C2\OC(C)(C)CC\C2=C/Sc2ccccc2)cc1` [Compound 2a-85] had a mortality rate in series [1] of 100%.

`C(/Sc1ccccc1)=C1/CCCS/C1=N\c1ccccc1` [Compound 2a-1, (Z)—N-((E)-3-(phenylthiomethylene)tetrahydro-2H-thiopyran-2-ylidene) aniline]: the mortality at 125 ppm in the series on Bemisia tabaci, with Aphis gossypii (setting [2]) and with Pseudaletia separate was 100% in each case.

Compound `CCCC1CCC(=C\Sc2ccccc2)/C(=N/c2ccc(C)cc2)O1` (centres unmarked) [Compound 2a-84] yielded a mortality rate in series [1] of 100%.

For the compound `Cc1ccc(/N=C2\OC3CCCCC3\C2=C/Sc2ccccc2)cc1` (centres unmarked) [Compound 5a-3], the mortality at 125 ppm in the series on Bemisia tabaci and in the series with Pseudaletia separate was 100% each time.

Compound `Cc1ccc(/N=C2\SCCC\C2=C/Sc2ccc(F)cc2)cc1` [Compound 2a-78] came in with a mortality rate in series [1] of 100%.

Compound `Cc1ccc(/N=C2\OC(C)CC\C2=C/Sc2ccccc2)cc1` (centres unmarked) [Compound 2a-83] returned a mortality rate in series [1] of 100%.

For the compound `Clc1ccc(/N=C2\SC3C=CCCC3C\C2=C/Sc2ccccc2)cc1` (centres unmarked) [Compound 5a-5, (4-chloro-phenyl)-{3-[1-phenylsulfanyl-(E)-methylidene]-3,4,4a,5,6,8a-hexahydro-thiochromene-(2Z)-ylidene}-amine], the mortality at 125 ppm in the series with Bemisia tabaci was 100%; in series [1] (Tetranychus urticae, 72 h, read-out: mortality rate), 100%; with Aphis gossypii, 100%; in the series with Pseudaletia separate it was 100%.

As for `Cc1ccc(/N=C2\OCc3ccccc3\C2=C/Sc2ccccc2)cc1` [Compound 5a-2], the mortality at 125 ppm with Pseudaletia separate worked out at 100%.

Take `C(/Sc1ccccc1)=C1/CCS/C1=N\c1ccccc1` [Compound 1a-1, (Z)—N-((E)-3-(phenylthiomethylene)dihydrothiophen-2(3H)-ylidene)aniline]: the mortality at 125 ppm in the series with Bemisia tabaci and with Pseudaletia separate was 100% throughout.
